The series is described as follows: in vivo. The settings on record: male, Dunkin-Hartley, guinea pig, inhaled or intranasal, 0.3 mM.

Description: Toxicity in male albino Dunkin-Hartley guinea pig model assessed as inhibition of carbachol-induced salivation at 0.3 mM, preadministered with compound for 10 mins via aerosol followed by anesthesia treatment 3 hrs post compound addition and further treated with carbachol and measured every 5 mins for 4 times

One may read the inhibition as the drop in the measured response relative to a control, in per cent. Compound `C[N+]1(C)[C@@H]2C[C@@H](OC(=O)C(O)(c3cccs3)c3cccs3)C[C@H]1[C@@H]1O[C@@H]12` [TIOTROPIUM BROMIDE] had an inhibition at 3.167 h, 300 µM of 77%.
